US20130116554A1, “X-RAY IMAGING AT LOW CONTRAST AGENT CONCENTRATIONS AND/OR LOW DOSE RADIATION” (priority 2010, published 2013)

Columns and labels:
[1] = Abdominal contrast enhanced CT in minipig, venous phase, SNR of ROI; type: in vivo; settings: liver; for ASiR 60% [SNR] / Veo [SNR]: 80 kVp
Experimental: (§1) An anaesthetized minipig (abdominal maximum and minimum diameters 36 cm and 20 cm, respectively) was imaged 3 times (imaging protocols 1, 2 and 3, Tables 3 and 4) on a Discovery CT 750 HD. Visipaque (60 mL) was injected at a rate of 2 mL/s into a jugular vein, followed by a 20 mL saline flush at the same injection rate. There was at least a 2 day washout period between each scanning session.
(§2) Protocol 1 with a Visipaque concentration of 320 mg l/mL and 120 kVp tube voltage represents current standard of care (SoC) imaging for humans. Automated tube current modulation (≦500 mA) was used with a noise index level of 30 and a tube rotation time of 0.7 s. Post-contrast CT images were acquired during the arterial phase, the portal venous phase, the venous phase and the late phase. Image reconstruction was done by (1) FBP, (2) ASiR 60% and (3) Veo. Pixel size was 0.703 mm×0.703 mm×0.625 mm.
(§3) Iodine contrast enhancement was assessed by measuring the signal-to-noise ratio (SNR) of circular regions of interest (ROI), see Tables 3 and 4. The SNR is calculated as ratio of mean ROI intensity in HU and standard deviation (SD). ROIs were placed in aorta and muscle (quadratus lumborum) in arterial phase images and in liver in venous phase images.

[2] = Abdominal contrast enhanced CT in minipig, arterial phase, SNR of ROI; type: in vivo; settings: for ASiR 60% [SNR] / Veo [SNR]: 80 kVp
Experimental: as §1, §2, §3

[3] = protocol 1: Visipaque 320 mg I/ml, 120 kVp, CTDIvol 6.7 mGy
[4] = protocol 2: Visipaque 170 mg I/ml, CTDIvol 3.2 mGy
[5] = protocol 3: Visipaque 120 mg I/ml, CTDIvol 6.4 mGy

CC(=O)N(CC(O)CN(C(C)=O)c1c(I)c(C(=O)NCC(O)CO)c(I)c(C(=O)NCC(O)CO)c1I)c1c(I)c(C(=O)NCC(O)CO)c(I)c(C(=O)NCC(O)CO)c1I (stereo not shown) [Visipaque, iodixanol]
FBP [SNR] [1, 3]: 4.3 | ASiR 60% [SNR] [1, 4]: 3.5 | Veo [SNR] [1, 4]: 8.1 | ASiR 60% [SNR] [1, 5]: 4.7 | Veo [SNR] [1, 5]: 8.1 | FBP [SNR] [2, 3]: 8.3 | ASiR 60% [SNR] [2, 4]: 7.4 | Veo [SNR] [2, 4]: 12.8 | ASiR 60% [SNR] [2, 5]: 8.5 | Veo [SNR] [2, 5]: 14.2
